The text below walks through data of patent publication US11731970B1, “Pyrrolo[2,3-b]quinoline compounds as antibacterial agents” (KING FAISAL UNIVERSITY, priority 2023, dated 2023).

In brackets after ≈: the same amount, converted by molar mass. Where two headings read alike, the source gives them in different places.

The test system of test [1] is Enterococcus faecium ATCC 35667. Nature of the test: Antibacterial MIC, CLSI M07-A10 dilution. Type of test: cell-based. Particulars: ATCC35667.
Test [2] relates to Staphylococcus epidermidis. Nature of the test: Antibacterial MIC, CLSI M07-A10 dilution. Type of test: cell-based.
For test [3], the system named is Pseudomonas aeruginosa MTCC 741. Nature of the test: Antibacterial MIC, CLSI M07-A10 dilution. Type of test: cell-based. The settings on record: MTCC741.
The test system of test [4] is Enterococcus faecium ATCC 51559 (VRE resistant). Nature of the test: Antibacterial MIC, CLSI M07-A10 dilution. Type of test: cell-based.
Test [5] concerns Bacillus subtilis MTCC 441. Nature of the test: Antibacterial MIC, CLSI M07-A10 dilution. Type of test: cell-based. Particulars: MTCC441.
The test system of test [6] is Escherichia coli MTCC 443. Kind of test: Antibacterial MIC, CLSI M07-A10 dilution. Type of test: cell-based. The settings on record: MTCC443.
In test [7] the test system is Klebsiella pneumonia MTCC 618. Kind of test: Antibacterial MIC, CLSI M07-A10 dilution. Type of test: cell-based. Particulars: Klebsiella pneumoniae, MTCC618.
For test [8], the system named is Mycobacterium tuberculosis H37Rv strain. Kind of test: Anti-tubercular alamar blue microplate MIC. Type of test: cell-based. Particulars: 168 h, M. tuberculosis H37Rv, seven days at 37° C., read-out: anti-mycobacterial activity (MIC).
Test [9] deals with Staphylococcus aureus ATCC BAA-1556 (MERSA resistant). Kind of test: Antibacterial MIC, CLSI M07-A10 dilution. Type of test: cell-based. Particulars: ATCCBAA1556.
The target of another test is T1, DNA gyrase from E. coli (Escherichia coli, UniProt P0AES4+P0AES6).
T1 construct: purchased Inspiralis
T1 sequence (P0AES4 whole entry, one chain of several): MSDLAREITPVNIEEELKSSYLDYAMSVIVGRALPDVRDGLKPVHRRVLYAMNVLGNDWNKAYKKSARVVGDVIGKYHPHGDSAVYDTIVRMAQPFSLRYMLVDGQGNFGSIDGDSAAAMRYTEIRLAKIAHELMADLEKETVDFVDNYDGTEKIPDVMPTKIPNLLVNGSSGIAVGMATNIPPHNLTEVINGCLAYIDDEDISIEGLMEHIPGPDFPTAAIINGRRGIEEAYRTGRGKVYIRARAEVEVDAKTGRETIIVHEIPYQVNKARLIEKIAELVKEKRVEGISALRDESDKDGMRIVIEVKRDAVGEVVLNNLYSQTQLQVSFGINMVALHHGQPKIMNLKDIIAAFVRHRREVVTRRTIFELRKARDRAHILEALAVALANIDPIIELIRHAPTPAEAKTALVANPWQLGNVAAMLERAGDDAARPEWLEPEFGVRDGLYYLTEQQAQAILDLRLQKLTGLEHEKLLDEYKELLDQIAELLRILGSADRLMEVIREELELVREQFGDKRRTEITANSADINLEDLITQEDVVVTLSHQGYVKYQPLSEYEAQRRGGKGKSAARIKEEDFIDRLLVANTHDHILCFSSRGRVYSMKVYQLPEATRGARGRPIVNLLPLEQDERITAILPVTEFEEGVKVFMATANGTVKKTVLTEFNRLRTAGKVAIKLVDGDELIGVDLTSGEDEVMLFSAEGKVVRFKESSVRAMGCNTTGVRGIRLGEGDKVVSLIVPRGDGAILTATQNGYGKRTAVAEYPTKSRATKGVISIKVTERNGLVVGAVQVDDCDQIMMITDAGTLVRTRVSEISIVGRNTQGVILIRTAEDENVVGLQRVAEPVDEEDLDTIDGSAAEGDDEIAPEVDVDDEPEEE
Kind of test: E. coli DNA gyrase inhibition (Inspiralis assay). Type of test: biochemical. As for the experimental part: Inhibitory potencies were investigated utilizing the Inspiralis assay on streptavidin-coated 96-well microtiter plates. First, the plates were rehydrated with buffer (20 mM Tris-HCl with pH 7.6, 0.01% w/v BSA, 0.05% v/v Tween 20, 137 mM NaCl) and the biotinylated oligonucleotide was then immobilized. After washing off the unbound oligonucleotide, the enzyme test was performed. The reaction volume of 30 μL in buffer (35 mM Tris×HCl with pH 7.5, 4 mM MgCl2, 24 mM KCl, 2 mM DTT, 1.8 mM spermidine, 1 mM ATP, 6.5% w/v glycerol, 0.1 mg/mL albumin) contained 1.5 U of DNA gyrase from E. coli, 0.75 μg of relaxed pNO1 plasmid, and 3 μL solution of the inhibitor in 10% DMSO and 0.008% Tween 20. Reaction solutions were incubated at 37° C. for 30 min. After that, the TF buffer (50 mM NaOAc with pH 5.0, 50 mM NaCl and 50 mM MgCl2) was added to terminate the enzymatic reaction. After additional incubation for 30 min at rt, during which biotinoligonucleotide-plasmid triplex was formed, the unbound plasmid was washed off using TF buffer and SybrGOLD in T10 buffer (10 mM Tris HCl with pH 8.0 and 1 mM EDTA) was added. The fluorescence was measured with a microplate reader (BioTek Synergy H4, excitation: 485 nm, emission: 535 nm). Initial screening was done at 100 or 10 μM concentration of inhibitors. […] GraphPad Prism software was used to calculate the IC50 values. […]

The test system of test [10] is Staphylococcus aureus ATCC 29213. Nature of the test: Antibacterial MIC, CLSI M07-A10 dilution. Type of test: cell-based. The settings on record: ATCC29213.

With `CN[C@H](CC(C)C)C(=O)N[C@H]1C(=O)N[C@@H](CC(N)=O)C(=O)N[C@H]2C(=O)N[C@H]3C(=O)N[C@H](C(=O)N[C@H](C(=O)O)c4cc(O)cc(O)c4-c4cc3ccc4O)[C@H](O)c3ccc(c(Cl)c3)Oc3cc2cc(c3O[C@@H]2O[C@H](CO)[C@@H](O)[C@H](O)[C@H]2O[C@H]2C[C@](C)(N)[C@H](O)[C@H](C)O2)Oc2ccc(cc2Cl)[C@H]1O` [Vancomycin, reference compound], the MIC was 0.5 µg/mL (≈ 0.345 µM) in [1] (Enterococcus faecium); 1 µg/mL (≈ 0.69 µM) in test [2]; more than 128 µg/mL in test [3] (Pseudomonas aeruginosa); more than 128 µg/mL in test [4] (Enterococcus faecium); 0.5 µg/mL (≈ 0.345 µM) in [5] (Bacillus subtilis); more than 128 µg/mL in test [6] (Escherichia coli). Further, in test [7], the MIC is more than 128 µg/mL.
For the molecule `CCCCCN(C)Cc1cc(C(=O)O)ccc1-c1cc2cc3cc(F)cc(NC)c3nc2[nH]1` [Compound 6, 4-(6-fluoro-8-(methylamino)-1H-pyrrolo[2,3-b]quinolin-2-yl)-3-((methyl(pentyl)amino)methyl)benzoic acid], the MIC in test [1] (Enterococcus faecium ATCC 35667, read-out: MIC) is 0.75 µg/mL (≈ 1.67 µM); in [2] (read-out: MIC), 1 µg/mL (≈ 2.23 µM); in test [3] (Pseudomonas aeruginosa MTCC 741, read-out: MIC) it was 0.75 µg/mL (≈ 1.67 µM); in test [8], 4 µg/mL (≈ 8.92 µM); in test [9], 0.75 µg/mL (≈ 1.67 µM); in test [4] (Enterococcus faecium ATCC 51559 (VRE resistant), read-out: MIC) it was 1 µg/mL (≈ 2.23 µM). Also, the minimum inhibitory concentration (MIC) in test [5] (Bacillus subtilis MTCC 441, read-out: MIC) was 0.5 µg/mL (≈ 1.11 µM); in test [10], 0.75 µg/mL (≈ 1.67 µM); in test [6] (Escherichia coli MTCC 443, read-out: MIC), 4 µg/mL (≈ 8.92 µM); in test [7] (Klebsiella pneumonia MTCC 618, read-out: MIC), 1 µg/mL (≈ 2.23 µM). Besides, the IC50 at DNA gyrase from E. coli amounted to 25 nM.
